Assay results from paper PMC12136037, “Type II kinase inhibitors that target Parkinson’s disease–associated LRRK2” (Science Advances, 2025).

How the values were obtained:
Test in all cases: DSF 100 kinase selectivity screen;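 note: compound tested at 20 µM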
Assay type in all cases: binding
[1] = molecular target: T1, ~100 representative kinases (Homo sapiens, UniProt P34947); details: protein GPRK5; average of three replicates
T1 construct: Recombinant protein kinase domains with a concentration of 2 μM
T1 sequence (P34947 whole entry, the tested form may be a part): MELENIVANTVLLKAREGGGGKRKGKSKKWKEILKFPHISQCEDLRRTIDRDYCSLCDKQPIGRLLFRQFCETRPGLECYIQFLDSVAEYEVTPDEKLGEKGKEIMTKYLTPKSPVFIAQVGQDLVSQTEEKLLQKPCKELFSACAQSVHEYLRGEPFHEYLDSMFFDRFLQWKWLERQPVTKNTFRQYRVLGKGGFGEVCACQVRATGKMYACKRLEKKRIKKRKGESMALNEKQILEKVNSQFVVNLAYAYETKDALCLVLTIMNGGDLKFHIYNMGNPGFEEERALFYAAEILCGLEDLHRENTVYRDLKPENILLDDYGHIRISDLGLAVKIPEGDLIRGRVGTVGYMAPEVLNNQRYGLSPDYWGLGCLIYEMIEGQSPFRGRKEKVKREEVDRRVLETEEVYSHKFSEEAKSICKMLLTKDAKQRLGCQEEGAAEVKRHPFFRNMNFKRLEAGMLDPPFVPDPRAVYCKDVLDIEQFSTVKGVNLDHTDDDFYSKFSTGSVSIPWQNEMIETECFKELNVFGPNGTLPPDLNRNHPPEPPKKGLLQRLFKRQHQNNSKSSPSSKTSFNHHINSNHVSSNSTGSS
Summary of the method: (§1)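 Each kinase domain, at 2 μM, is mixed with 20 μM test compound and SYPRO Orange in Hepes (20 mM, pH 7.5) with 500 mM NaCl. Temperature is then raised at 3°C/min and fluorescence-monitored unfolding yields the melting temperature change, ΔTm in degrees Celsius.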

[2] = molecular target: T2, ~100 representative kinases (Homo sapiens, UniProt P21802); details: protein FGFR2; average of three replicates
T2 construct: Recombinant protein kinase domains with a concentration of 2 μM
T2 sequence (P21802 22-821): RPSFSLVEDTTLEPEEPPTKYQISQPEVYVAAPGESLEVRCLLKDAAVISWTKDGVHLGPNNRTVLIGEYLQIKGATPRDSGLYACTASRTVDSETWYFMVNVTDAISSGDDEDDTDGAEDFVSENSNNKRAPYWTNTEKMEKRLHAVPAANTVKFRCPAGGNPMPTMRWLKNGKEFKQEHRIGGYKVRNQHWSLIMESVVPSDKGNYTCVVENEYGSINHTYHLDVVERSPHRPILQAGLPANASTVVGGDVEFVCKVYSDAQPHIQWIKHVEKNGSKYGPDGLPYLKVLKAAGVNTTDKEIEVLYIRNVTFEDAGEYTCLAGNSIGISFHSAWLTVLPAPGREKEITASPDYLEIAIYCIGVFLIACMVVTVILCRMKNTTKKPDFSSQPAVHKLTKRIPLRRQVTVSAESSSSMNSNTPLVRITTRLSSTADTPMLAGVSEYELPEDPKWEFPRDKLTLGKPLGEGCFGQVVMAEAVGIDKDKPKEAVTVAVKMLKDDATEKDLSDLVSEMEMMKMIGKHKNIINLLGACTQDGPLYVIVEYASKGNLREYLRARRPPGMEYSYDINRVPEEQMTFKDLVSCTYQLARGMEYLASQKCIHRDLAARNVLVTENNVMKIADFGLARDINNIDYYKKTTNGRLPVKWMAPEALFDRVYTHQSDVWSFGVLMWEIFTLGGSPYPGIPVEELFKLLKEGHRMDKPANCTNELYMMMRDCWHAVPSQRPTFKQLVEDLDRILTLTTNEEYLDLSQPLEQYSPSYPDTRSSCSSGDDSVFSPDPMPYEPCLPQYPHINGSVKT
Summary of the method: as §1

[3] = molecular target: T3, ~100 representative kinases (Homo sapiens, UniProt P17948); details: protein FLT1; average of three replicates
T3 construct: Recombinant protein kinase domains with a concentration of 2 μM
Summary of the method: as §1

[4] = molecular target: T4, ~100 representative kinases (Homo sapiens, UniProt Q86V86); details: protein PIM3; average of three replicates
T4 construct: Recombinant protein kinase domains with a concentration of 2 μM
Summary of the method: as §1

[5] = molecular target: T5, ~100 representative kinases (Homo sapiens, UniProt O96013); details: protein PAK4; average of three replicates
T5 construct: Recombinant protein kinase domains with a concentration of 2 μM
T5 sequence (O96013 whole entry, the tested form may be a part): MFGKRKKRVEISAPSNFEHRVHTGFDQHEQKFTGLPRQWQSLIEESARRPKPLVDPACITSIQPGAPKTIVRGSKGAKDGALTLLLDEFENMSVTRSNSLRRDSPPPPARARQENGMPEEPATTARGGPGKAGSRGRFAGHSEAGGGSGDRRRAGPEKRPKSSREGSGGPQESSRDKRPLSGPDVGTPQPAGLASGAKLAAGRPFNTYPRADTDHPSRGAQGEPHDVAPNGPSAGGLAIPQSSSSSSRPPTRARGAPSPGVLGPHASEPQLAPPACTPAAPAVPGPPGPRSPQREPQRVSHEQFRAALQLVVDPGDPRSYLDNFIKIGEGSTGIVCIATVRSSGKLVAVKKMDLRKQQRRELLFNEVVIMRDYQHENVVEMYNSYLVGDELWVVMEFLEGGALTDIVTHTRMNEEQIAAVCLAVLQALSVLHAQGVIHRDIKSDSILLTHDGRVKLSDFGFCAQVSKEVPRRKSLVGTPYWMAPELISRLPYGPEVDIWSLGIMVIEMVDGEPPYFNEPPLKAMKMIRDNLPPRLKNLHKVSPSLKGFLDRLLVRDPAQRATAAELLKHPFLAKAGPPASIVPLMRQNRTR
Summary of the method: as §1

[6] = molecular target: T6, ~100 representative kinases (Homo sapiens, UniProt Q2M2I8); details: Protein AAK1; average of three replicates
T6 construct: Recombinant protein kinase domains with a concentration of 2 μM
T6 sequence (Q2M2I8 whole entry, the tested form may be a part): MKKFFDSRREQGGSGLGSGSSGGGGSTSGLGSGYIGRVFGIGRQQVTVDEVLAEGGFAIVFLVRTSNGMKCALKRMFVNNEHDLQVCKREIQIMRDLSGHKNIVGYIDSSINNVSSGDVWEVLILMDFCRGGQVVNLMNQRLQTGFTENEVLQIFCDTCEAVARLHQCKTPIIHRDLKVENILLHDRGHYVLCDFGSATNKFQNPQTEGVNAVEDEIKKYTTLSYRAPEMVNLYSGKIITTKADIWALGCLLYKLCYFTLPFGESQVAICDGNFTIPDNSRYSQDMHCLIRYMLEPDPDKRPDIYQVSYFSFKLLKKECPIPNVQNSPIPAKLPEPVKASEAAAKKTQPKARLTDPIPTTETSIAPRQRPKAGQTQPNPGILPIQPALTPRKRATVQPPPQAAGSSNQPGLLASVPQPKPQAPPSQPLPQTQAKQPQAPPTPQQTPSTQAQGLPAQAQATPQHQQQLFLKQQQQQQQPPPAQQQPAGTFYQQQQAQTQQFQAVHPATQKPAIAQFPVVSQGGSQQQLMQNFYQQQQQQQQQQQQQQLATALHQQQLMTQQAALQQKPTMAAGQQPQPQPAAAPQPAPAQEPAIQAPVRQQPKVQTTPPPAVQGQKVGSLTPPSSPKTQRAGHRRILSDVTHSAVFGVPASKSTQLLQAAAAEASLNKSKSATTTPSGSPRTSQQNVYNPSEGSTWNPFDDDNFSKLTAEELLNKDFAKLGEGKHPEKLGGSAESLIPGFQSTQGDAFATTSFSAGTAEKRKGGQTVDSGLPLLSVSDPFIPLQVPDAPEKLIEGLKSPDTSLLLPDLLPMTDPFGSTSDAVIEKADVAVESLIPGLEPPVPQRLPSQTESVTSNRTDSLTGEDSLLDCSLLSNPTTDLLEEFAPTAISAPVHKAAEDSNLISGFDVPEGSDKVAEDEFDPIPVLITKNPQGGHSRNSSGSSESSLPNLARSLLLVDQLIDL
Summary of the method: as §1

[7] = molecular target: T7, ~100 representative kinases (Homo sapiens, UniProt Q96L34); details: protein MARK4; average of three replicates
T7 construct: Recombinant protein kinase domains with a concentration of 2 μM
T7 sequence (Q96L34 1-752): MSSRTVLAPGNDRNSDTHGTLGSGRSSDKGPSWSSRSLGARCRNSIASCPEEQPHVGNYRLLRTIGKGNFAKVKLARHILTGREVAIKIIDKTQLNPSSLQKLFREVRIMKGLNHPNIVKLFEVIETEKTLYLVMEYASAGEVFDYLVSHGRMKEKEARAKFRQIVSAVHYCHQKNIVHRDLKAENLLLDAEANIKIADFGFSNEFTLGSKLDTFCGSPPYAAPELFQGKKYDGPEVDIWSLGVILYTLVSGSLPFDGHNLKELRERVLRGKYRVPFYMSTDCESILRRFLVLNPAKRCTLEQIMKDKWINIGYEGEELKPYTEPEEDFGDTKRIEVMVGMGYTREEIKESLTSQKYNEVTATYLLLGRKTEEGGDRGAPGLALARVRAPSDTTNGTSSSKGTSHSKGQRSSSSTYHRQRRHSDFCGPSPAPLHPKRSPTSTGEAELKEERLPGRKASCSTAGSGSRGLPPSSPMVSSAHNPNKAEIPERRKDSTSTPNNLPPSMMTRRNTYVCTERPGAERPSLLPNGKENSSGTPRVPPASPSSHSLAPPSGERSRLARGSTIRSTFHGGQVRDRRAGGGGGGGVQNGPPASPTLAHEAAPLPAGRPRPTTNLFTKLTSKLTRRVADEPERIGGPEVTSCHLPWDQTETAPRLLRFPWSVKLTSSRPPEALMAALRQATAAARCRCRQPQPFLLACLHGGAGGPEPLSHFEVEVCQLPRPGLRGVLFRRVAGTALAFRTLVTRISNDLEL
Summary of the method: as §1

[8] = molecular target: T8, ~100 representative kinases (Homo sapiens, UniProt P51813); details: Protein BMX; average of three replicates
T8 construct: Recombinant protein kinase domains with a concentration of 2 μM
T8 sequence (P51813 1-675): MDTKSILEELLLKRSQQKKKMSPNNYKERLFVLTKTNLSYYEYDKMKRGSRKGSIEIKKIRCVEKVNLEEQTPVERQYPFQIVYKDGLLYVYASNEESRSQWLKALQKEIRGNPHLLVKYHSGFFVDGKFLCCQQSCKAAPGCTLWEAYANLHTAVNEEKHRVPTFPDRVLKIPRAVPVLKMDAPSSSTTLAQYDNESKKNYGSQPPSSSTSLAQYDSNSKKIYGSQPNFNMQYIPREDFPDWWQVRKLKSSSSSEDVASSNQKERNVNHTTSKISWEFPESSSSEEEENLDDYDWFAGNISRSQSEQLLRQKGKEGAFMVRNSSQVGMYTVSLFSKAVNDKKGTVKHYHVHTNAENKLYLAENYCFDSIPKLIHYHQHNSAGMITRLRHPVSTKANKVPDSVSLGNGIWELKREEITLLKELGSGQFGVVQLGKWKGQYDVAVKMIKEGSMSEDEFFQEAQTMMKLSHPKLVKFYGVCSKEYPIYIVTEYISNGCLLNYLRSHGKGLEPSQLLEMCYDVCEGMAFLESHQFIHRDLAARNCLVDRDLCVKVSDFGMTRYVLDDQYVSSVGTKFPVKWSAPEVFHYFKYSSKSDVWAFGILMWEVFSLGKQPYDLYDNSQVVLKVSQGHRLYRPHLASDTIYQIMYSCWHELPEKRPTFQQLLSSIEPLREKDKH
Summary of the method: as §1

[9] = molecular target: T9, ~100 representative kinases (Homo sapiens, UniProt P53355); details: Protein DAPK1; average of three replicates
T9 construct: Recombinant protein kinase domains with a concentration of 2 μM
T9 sequence (P53355 whole entry, the tested form may be a part): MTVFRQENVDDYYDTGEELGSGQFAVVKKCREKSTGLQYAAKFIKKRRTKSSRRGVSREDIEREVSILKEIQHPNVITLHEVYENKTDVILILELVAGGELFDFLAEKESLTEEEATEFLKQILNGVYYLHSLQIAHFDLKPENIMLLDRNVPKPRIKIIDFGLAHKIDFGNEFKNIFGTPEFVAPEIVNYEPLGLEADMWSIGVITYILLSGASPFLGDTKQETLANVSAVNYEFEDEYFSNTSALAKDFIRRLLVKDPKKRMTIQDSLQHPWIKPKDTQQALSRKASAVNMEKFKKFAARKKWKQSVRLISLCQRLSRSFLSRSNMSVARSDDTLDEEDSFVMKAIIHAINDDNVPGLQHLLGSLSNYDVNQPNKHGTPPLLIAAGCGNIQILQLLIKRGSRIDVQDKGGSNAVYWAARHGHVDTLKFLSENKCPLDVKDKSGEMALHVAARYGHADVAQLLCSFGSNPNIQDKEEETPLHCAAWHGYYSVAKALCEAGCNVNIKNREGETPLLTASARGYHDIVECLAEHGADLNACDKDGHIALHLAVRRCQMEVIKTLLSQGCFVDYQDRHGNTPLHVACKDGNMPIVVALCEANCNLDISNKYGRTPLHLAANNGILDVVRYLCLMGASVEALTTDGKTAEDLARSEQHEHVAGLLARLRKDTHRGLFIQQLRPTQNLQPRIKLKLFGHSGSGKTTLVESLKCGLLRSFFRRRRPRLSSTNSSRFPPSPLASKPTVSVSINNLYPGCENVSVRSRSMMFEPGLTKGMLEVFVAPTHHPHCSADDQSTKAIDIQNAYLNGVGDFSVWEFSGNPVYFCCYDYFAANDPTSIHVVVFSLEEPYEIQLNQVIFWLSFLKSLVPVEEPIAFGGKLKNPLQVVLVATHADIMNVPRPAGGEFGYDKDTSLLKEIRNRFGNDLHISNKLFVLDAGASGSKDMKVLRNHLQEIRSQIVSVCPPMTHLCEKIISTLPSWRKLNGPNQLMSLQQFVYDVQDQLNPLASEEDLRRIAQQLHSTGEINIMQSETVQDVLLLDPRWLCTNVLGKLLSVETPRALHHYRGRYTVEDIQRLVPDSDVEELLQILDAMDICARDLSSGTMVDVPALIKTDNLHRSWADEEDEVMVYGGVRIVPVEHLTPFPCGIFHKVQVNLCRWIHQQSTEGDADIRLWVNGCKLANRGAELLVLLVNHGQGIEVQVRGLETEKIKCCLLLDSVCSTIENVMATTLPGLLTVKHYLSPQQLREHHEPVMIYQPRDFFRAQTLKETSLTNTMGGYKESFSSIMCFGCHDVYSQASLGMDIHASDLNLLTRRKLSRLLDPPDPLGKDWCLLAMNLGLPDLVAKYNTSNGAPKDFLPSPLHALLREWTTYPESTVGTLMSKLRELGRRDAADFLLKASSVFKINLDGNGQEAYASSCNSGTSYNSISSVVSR
Summary of the method: as §1

[10] = molecular target: T10, ~100 representative kinases (Homo sapiens, UniProt Q8TD08); details: protein MAPK15; average of three replicates
T10 construct: Recombinant protein kinase domains with a concentration of 2 μM
T10 sequence (Q8TD08 1-544): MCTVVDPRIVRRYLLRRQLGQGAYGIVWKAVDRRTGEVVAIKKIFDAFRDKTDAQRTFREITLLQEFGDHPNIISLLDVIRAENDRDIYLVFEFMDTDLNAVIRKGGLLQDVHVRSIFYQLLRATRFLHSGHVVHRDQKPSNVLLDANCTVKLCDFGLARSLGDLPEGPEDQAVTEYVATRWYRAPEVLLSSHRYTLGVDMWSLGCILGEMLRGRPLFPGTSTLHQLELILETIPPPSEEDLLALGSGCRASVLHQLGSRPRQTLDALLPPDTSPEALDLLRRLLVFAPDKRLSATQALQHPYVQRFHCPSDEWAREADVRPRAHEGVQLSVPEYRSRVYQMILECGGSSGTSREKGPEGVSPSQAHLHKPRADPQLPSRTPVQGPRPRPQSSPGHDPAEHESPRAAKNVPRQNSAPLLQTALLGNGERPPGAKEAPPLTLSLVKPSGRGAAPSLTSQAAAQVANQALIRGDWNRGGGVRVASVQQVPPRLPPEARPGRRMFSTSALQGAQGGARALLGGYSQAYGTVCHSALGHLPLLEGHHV
Summary of the method: as §1

Row | SMILES | dTm [1] [K] | dTm [2] [K] | dTm [3] [K] | dTm [4] [K] | dTm [5] [K] | dTm [6] [K] | dTm [7] [K] | dTm [8] [K] | dTm [9] [K] | dTm [10] [K]
1 | CC(=O)N1CCN(c2nc(Cl)nc3[nH]cc(-c4cccc(NC(=O)Nc5cc(C(C)(C)C)nn5-c5ccc(C)cc5)c4)c23)CC1 [Compound 31] | -1.15 | -0.09 | 7.62 | 0.67 | 0.48 | 0.59 | -0.53 | -1.76 | -1.54 | 8.84
2 | CCSc1nc(NC)c2c(-c3cccc(NC(=O)Nc4cc(C(C)(C)C)nn4-c4ccc(C)cc4)c3)c[nH]c2n1 [Compound 32] | -0.61 | -0.15 | 1.15 | 2.14 | 0.61 | 0.08 | 0.25 | -0.26 | -0.22 | 3.18
3 | COc1cc(C(=O)N2CCOCC2)c(F)cc1Nc1nc(N(C)C)c2c(Cl)c[nH]c2n1 [Compound 36] | 0.46 | -0.36 | 0.33 | -0.33 | -0.14 | 2.52 | -0.63 | -0.34 | 3.45 | 0.97
4 | COc1cc(S(C)(=O)=O)ccc1Nc1nc(N(C)C)c2c(Cl)c[nH]c2n1 [Compound 37] | 1.16 | -0.14 | -0.32 | 0.48 | 0.22 | 0.85 | 0.42 | -0.17 | 0.93 | -0.10
5 | CCNc1nc(Nc2cc(F)c(C(=O)N3CCOCC3)cc2OC)ncc1C(F)(F)F [GNE-7915] | 0.32 | 0.49 | 1.69 | 0.92 | 1.08 | 4.61 | -0.13 | -0.0422 | 1.29 | 2.03
6 | C[C@@H]1CN(c2cc(-c3n[nH]c4ccc(OC5(C)CC5)cc34)ncn2)C[C@H](C)O1 [MLi2] | 0.07 | -0.06 | 0.51 | 0.23 | -0.10 | 1.29 | -0.55 | -2.53 | 0.22 | -0.33
7 | Cn1cc(-c2c[nH]c3ncnc(N4CCOCC4)c23)cc1C#N [PFE-360] | 0.56 | 0.89 | 2.46 | 0.58 | 4.09 | 8.34 | 3.49 | 0.47 | 0.54 | 3.82
